# Reference: patent publication US8426429B2, “2-amino-quinazoline derivatives useful as inhibitors of β-secretase (BACE)” (Jansssen Pharmaceutica N.V., priority 2004, dated 2013)
# Molecular target: T1, β-secretase (BACE) (Homo sapiens, UniProt P56817)
# T1 construct: purchased Panvera
# Assay: BACE FS1 % Inhibition Assay
# Type: biochemical
# Protocol: The following reagents were used in this assay: sodium acetate, PEG8000 (Sigma), DMSO, HEPES, FS1 substrate [[…]] […] The FS1-substrate stock solution was prepared in DMSO as a 10 mg/mL solution. The FS1-substrate working solution was prepared by diluting the 10 mg/mL stock solution with substrate assay buffer to a final concentration of 300 μg/mL. The β-secretase (BACE) working solution was prepared by diluting a 0.83 mg/mL BACE stock solution with enzyme assay buffer to a final concentration of 4 μg/mL. Test compounds were dissolved in DMSO to 10 mM. […] The screening procedure for this assay was as follows: 15 μL of BACE working solution was pipetted into each well of a 96-well plate. To each well was then pipetted 2 μL of test compound at the selected concentration. Test compound and BACE were then mixed with a pipettor and incubated for 20 min at room temperature. To each well was then added 10 μL of the FS1 substrate working solution. The plates were then incubated for 1 hour at room temperature. […] The procedure for the blank was as follows. 15 μL of assay buffer was pipetted into each well to be used as a blank control. To each well was then added 2 μL of vehicle and 10 μL of FS1-substrate working solution. The plates were then incubated for 1 hour at room temperature. […] The procedure for the positive control was as follows: 15 μL of BACE working solution was pipetted into each well to be used as a positive control. To each well was then pipetted 2 μL of vehicle. Vehicle and BACE were then mixed with a pipettor and incubated for 20 min at room temperature. To each well was then added 10 μL of the FS1 substrate working solution. The plates were then incubated for 1 hour at room temperature. […] For test compounds, % inhibition was determined at each concentration as follows: [formula]
# T1 sequence (P56817 46-501): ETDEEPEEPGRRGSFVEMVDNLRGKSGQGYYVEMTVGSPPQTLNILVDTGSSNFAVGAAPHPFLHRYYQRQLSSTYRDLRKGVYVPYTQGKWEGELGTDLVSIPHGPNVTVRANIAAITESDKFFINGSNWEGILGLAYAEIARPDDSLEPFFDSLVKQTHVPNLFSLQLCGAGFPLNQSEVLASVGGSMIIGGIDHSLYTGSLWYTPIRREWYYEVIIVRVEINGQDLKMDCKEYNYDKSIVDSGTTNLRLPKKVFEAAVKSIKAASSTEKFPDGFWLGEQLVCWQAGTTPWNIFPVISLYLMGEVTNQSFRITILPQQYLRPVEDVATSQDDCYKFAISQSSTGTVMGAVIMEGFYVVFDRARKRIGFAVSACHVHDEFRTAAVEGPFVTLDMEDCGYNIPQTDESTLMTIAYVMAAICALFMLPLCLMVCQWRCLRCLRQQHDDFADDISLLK
SMILES,% Inhibition (FS) (0.3 μM test compound),% Inhibition (FS) (1 μM test compound),% Inhibition (FS) (3 μM test compound)
CC1CCC(C(=O)NCCN2Cc3cc(Oc4ccccc4)ccc3N=C2N)CC1 (stereo not drawn) [Compound 191],<30%,46%,88%
NC1=Nc2ccc(Oc3ccccc3)cc2CN1CCNC(=O)c1ccc(-c2ccccc2)cc1 [Compound 195],<30%,<30%,<30%
CCCN(CC1CC1)C(=O)c1cccc(CN2Cc3cc(Oc4ccccc4)ccc3N=C2N)c1 [Compound 197],<30%,<30%,32%
CC(C)C(CC(=O)N(C)C1CCCCC1)N1Cc2cc(Oc3ccccc3)ccc2N=C1N (stereo not drawn) [Compound 201],<30%,<30%,66%
NC1=Nc2ccc(Oc3ccccc3)cc2CN1CCNC(=O)C(c1ccccc1)c1ccccc1 [Compound 207],48%,90%,108%
CCCCCCCCC(CCC(=O)NC1CCCCCC1)N1Cc2cc(Oc3ccccc3)ccc2N=C1N (stereo not drawn) [Compound 208],<30%,<30%,67%
CCCCCCCCC(CCC(=O)N(C)C1CCCCC1)N1Cc2cc(Oc3ccccc3)ccc2N=C1N (stereo not drawn) [Compound 210],<30%,<30%,<30%
NC1=Nc2ccc(Oc3ccccc3)cc2CN1Cc1cccc(C(=O)N2CCCC3CCCCC32)c1 (stereo not drawn) [Compound 212],<30%,<30%,32%
CC1CCC(NC(=O)c2cccc(CN3Cc4cc(Oc5ccccc5)ccc4N=C3N)c2)CC1 (stereo not drawn) [Compound 213],<30%,<30%,<30%
COc1cccc(C(=O)NCCN2Cc3cc(Oc4ccccc4)ccc3N=C2N)c1 [Compound 217],<30%,<30%,56%
CC(=O)Nc1cccc(Oc2ccc3c(c2)CN(Cc2cccc(C(=O)N(C)C4CCCCC4)c2)C(N)=N3)c1 [Compound 229],<30%,35%,<30%
CN(C(=O)c1cccc(CN2Cc3cc(Oc4cccnc4)ccc3N=C2N)c1)C1CCCCC1 [Compound 230],<30%,33%,<30%
CN(C(=O)c1cccc(CN2Cc3cc(Oc4ccccc4-c4ccccc4)ccc3N=C2N)c1)C1CCCCC1 [Compound 234],<30%,57%,43%
CN(C(=O)c1cccc(CN2Cc3cc(Oc4ccccc4CC(N)=O)ccc3N=C2N)c1)C1CCCCC1 [Compound 235],<30%,46%,<30%
CC(C)(C)OC(=O)NCC(C1CCCCC1)N1Cc2cc(Oc3ccccc3)ccc2N=C1N (stereo not drawn) [Compound 257],67%,105%,111%
CC(C)(C)OC(=O)NCC(c1ccccc1)N1Cc2cc(Oc3ccccc3)ccc2N=C1N (stereo not drawn) [Compound 258],<30%,46%,72%

# Next, values leading:
% Inhibition (FS) (0.3 μM test compound),% Inhibition (FS) (1 μM test compound),% Inhibition (FS) (3 μM test compound),SMILES
<30%,<30%,<30%,CN(C)c1ccc(C(=O)NCCN2Cc3cc(Oc4ccccc4)ccc3N=C2N)cc1 [Compound 189]
51%,86%,101%,CC(C)CC(=O)NCCN1Cc2cc(Oc3ccccc3)ccc2N=C1N [Compound 190]
<30%,34%,67%,NC1=Nc2ccc(Oc3ccccc3)cc2CN1Cc1cccc(C(=O)N2CCC3CCCCC3C2)c1 (stereo not drawn) [Compound 193]
<30%,42%,38%,CCCCCC1CC2(C(=O)NCCN3Cc4cc(Oc5ccccc5)ccc4N=C3N)CCC1CC2 (stereo not drawn) [Compound 194]
<30%,<30%,<30%,CCCCC(CC)CN(CC(CC)CCCC)C(=O)c1cccc(CN2Cc3cc(Oc4ccccc4)ccc3N=C2N)c1 (stereo not drawn) [Compound 198]
<30%,<30%,82%,CN(C(=O)CC(C1CCCCC1)N1Cc2cc(Oc3ccccc3)ccc2N=C1N)C1CCCCC1 (stereo not drawn) [Compound 199]
<30%,<30%,<30%,CC(C)N(C(=O)CC(C1CCCCC1)N1Cc2cc(Oc3ccccc3)ccc2N=C1N)C1CCCCC1 (stereo not drawn) [Compound 200]
<30%,<30%,<30%,CC(C)C(CC(=O)N(C(C)C)C1CCCCC1)N1Cc2cc(Oc3ccccc3)ccc2N=C1N (stereo not drawn) [Compound 202]
<30%,<30%,<30%,CN1CCCC1CCNC(=O)c1cccc(CN2Cc3cc(Oc4ccccc4)ccc3N=C2N)c1 (stereo not drawn) [Compound 222]
<30%,<30%,<30%,CN1CCC(N(C)C(=O)c2cccc(CN3Cc4cc(Oc5ccccc5)ccc4N=C3N)c2)CC1 [Compound 223]
<30%,<30%,<30%,CC(C)(C)OC(=O)Nc1cccc(CN2Cc3cc(Oc4ccccc4)ccc3N=C2N)c1 [Compound 224]
<30%,<30%,54%,COc1ccc(-c2ccc3c(c2)CN(C(CCC(=O)N(C)C2CCCCC2)C2CCCCC2)C(N)=N3)cc1 (stereo not drawn) [Compound 226]
86%,109%,116%,COc1ccccc1-c1ccc2c(c1)CN(C(CCC(=O)N(C)C1CCCCC1)C1CCCCC1)C(N)=N2 (stereo not drawn) [Compound 227]
<30%,49%,40%,Cc1cc(C)cc(Oc2ccc3c(c2)CN(Cc2cccc(C(=O)N(C)C4CCCCC4)c2)C(N)=N3)c1 [Compound 228]
<30%,<30%,31%,COc1ccccc1Oc1ccc2c(c1)CN(Cc1cccc(C(=O)N(C)C3CCCCC3)c1)C(N)=N2 [Compound 232]
<30%,32%,36%,CN(C(=O)c1cccc(CN2Cc3cc(Oc4ccc5c(c4)CCCC5)ccc3N=C2N)c1)C1CCCCC1 [Compound 233]
<30%,37%,49%,CN(C(=O)c1cccc(CN2Cc3cc(Oc4cccc(Oc5ccccc5)c4)ccc3N=C2N)c1)C1CCCCC1 [Compound 236]
<30%,34%,<30%,CN(C(=O)c1cccc(CN2Cc3cc(C=Cc4ccccc4)ccc3N=C2N)c1)C1CCCCC1 [Compound 266]
<30%,39%,38%,CN(C(=O)c1cccc(CN2Cc3cc(-c4ccc(C5CCCCC5)cc4)ccc3N=C2N)c1)C1CCCCC1 [Compound 267]
